Assay results taken from patent US9283202B2, “Stable peracid-containing compositions” (CHD Bioscience, Inc., priority 2012, dated 2016).

Experiment: active ingredient concentration over time in 50% ethanol solution (pullulan precipitating agent)
Format: physicochemical
Conditions: 50% ethanol solution in buffer, 25 minutes, one data point every five minutes (FIG. 7)
Procedure: FIGS. 6-8 show examples of removing pullulan by precipitation using an alcohol or PEG. As an alternative, pullulan can be removed by precipitation using either an alcohol or polyethylene glycol (PEG). In this approach, the precipitating agent is added to the solution and causes pullulan to form a white solid. The active ingredient is not affected by this addition. The solid can be stopped from getting into the solution by either an appropriate container or a simple filter. […] In FIG. 7, a 50% ethanol solution was prepared in buffer. The active ingredient concentration was measured over time for 25 minutes (one data point every five minutes). […] Furthermore, measurements of the same concentration in straight buffer yield the same measured concentration of active ingredient.

- measured concentration of active ingredient over time: no statistical difference
Compound: CC(=O)C(=O)OO [active ingredient, peroxy pyruvic acid]
